Experimental data reported in patent publication US9340574B2, “Inhibitors of protein tyrosine phosphatases” (Indiana University Research and Technology Corporation, priority 2012, dated 2016).
pIC50: −log10 of the molar value.

How the values were obtained:
[1] = system: panel of mammalian PTPs (PTP-MEG1, SHP1, SHP2, Lyp, FAP-1, PTP-PEST, PTPH1, Laforin, HePTP, CD45, LAR, DEP1, PTPμ, PTPγ, PTPβ, PTPε, VHR, VHX); assay: Inhibition of a panel of mammalian PTPs at 10 μM; type: biochemical
Procedure: (§1) Enzyme kinetic assay. PTP activity was assayed using p-nitrophenyl phosphate (pNPP) as a substrate in 3,3-dimethylglutarate buffer (50 mM 3,3-dimethylglutarate, pH 7.0, 1 mM EDTA, 150 mM NaCl, 2 mM DTT, 0.1 mg/mL BSA) at 25° C. The assays were performed in 96-well plates. Normally, to determine the IC50 values, the reaction was initiated by the addition of enzyme (final concentration at 10 nM) to a reaction mixture (0.2 mL) containing 2 mM (Km for the substrate) pNPP with various concentrations of inhibitors. The reaction rate was measured using a SpectraMax Plus 384 Microplate Spectrophotometer (Molecular Devices). To determine the mode of inhibition, the reactions were initiated by the addition of PTP-MEG2 to the reaction mixtures (0.2 mL) containing various concentrations of pNPP with different concentrations of the inhibitor 7. Data were fitted using SigmaPlot Enzyme Kinetics Module (Systat Software, Inc.).

[2] = system: insulin signaling in metabolic tissues of diet-induced obese mice; assay: Insulin signaling in liver, skeletal muscle and white adipose tissue of diet-induced obese mice (immunoblot); type: in vivo, mouse; conditions: skeletal muscle, white adipose tissue, 2-week injections, insulin bolus
Excerpt: To investigate the underlying mechanisms responsible for the improved insulin sensitivity in Compound 7 treated diet-induced obese mice, we analyzed key insulin signaling events in metabolically active tissues. Phosphorylation of Tyr1162/1163 residues in IR was stimulated 2-3 fold higher in the liver, skeletal muscle, and white adipose tissue in Compound 7 treated mice than that in control mice (FIGS. 5G & H). […] These biochemical data are consistent with the animal phenotype that Compound 7 can effectively improve insulin sensitivity in diet-induced obese mice. Our finding that chemical inhibition of PTP-MEG2 augments insulin signaling, insulin sensitivity and glucose homeostasis in insulin resistant mice is consistent with the observation that silencing of PTP-MEG2 in the livers of db/db mice results in a reversal of insulin resistance and hyperglycemia (Cho, et al., Cell Metab. 2006, 3, 367-378). Moreover, our in vivo data also serve as proof-of-concept and support the notion that specific inhibitors of PTP-MEG2 may be effective anti-diabetes agents.

[3] = system: 3T3-L1 differentiated adipocytes; assay: Insulin signaling in 3T3-L1 differentiated adipocytes; type: cell-based; conditions: 3T3-L1 adipocytes, 1 hour pretreatment before insulin
Procedure: (§2) Cell lysate (20 μg protein) was subjected to 10% SDS-PAGE and probed with phospho-Akt, phospho-IR (Y1162/1163) or Akt antibody, respectively. […] Cell lysate (20 μg protein) was subjected to 10% SDS-PAGE and probed with phospho-IR(Y1162/1163), phospho-Akt (pS473) or total Akt antibody, respectively. […] Cell lysate (20 μg protein) or insulin receptor immunoprecipitation beads were subjected to 10% SDS-PAGE and probed with phospho-Akt, Akt, insulin receptor beta or phospho-tyrosine antibody (4G10), respectively. The non-specific band from insulin receptor immunoprecipitates served as a loading control for insulin receptor and phospho-insulin receptor.
(§3) Western blot analysis. Cells were homogenized in the lysis buffer (50 mM Hepes, pH 7.5, 150 mM NaCl, 10% Glycerol, 1% Triton X-100, 1.5 mM MgCl2, 1 mM EGTA, 10 μM Sodium Pyrophosphate, 100 mM sodium fluoride and freshly added 100 μM sodium vanadate, 1 mM PMSF, 10 μg/ml Aprotinin, and 10 μg/mL Leupeptin). Protein extracts were resolved on an SDS-PAGE gel and transferred to nitrocellulose membrane. […] Protein signals were detected by incubation with HRP-conjugated secondary antibodies, followed by ECL detection reagent (Pierce). Western blots were scanned and quantified using the Quantity One software (Bio-Rad).

PTPγ = PTPγ (Homo sapiens (Human), UniProt P23470); assay: pNPP hydrolysis enzyme assay, PTPγ; type: biochemical
Procedure: as §1

DEP1 = DEP1 (Homo sapiens (Human), UniProt Q12913); assay: pNPP hydrolysis enzyme assay, DEP1; type: biochemical
Procedure: as §1

PTP1B = PTP1B (Homo sapiens (Human), UniProt P18031); assay: pNPP hydrolysis enzyme assay, PTP1B; type: biochemical
Procedure: as §1

[4] = Pharmacokinetics in mouse plasma; type: in vivo; conditions: for Cmax: mouse plasma
Procedure: Pharmacokinetic parameters for Compound 7. Compound 7 was quantified in mouse plasma using protein precipitation, internal standardization, and HPLC-MS/MS. Acetone was used to precipitate proteins and Compound 8 was the internal standard. Compound 7 and Compound 8 were separated using a C8 50×4.6 mm 5 um (Restek Ultra) HPLC column and a gradient mobile phase (acetonitrile:5 mM ammonium acetate). Compounds were detected using ESI in positive mode (Thermo Quantum Ultra; Thermo Fisher). The Q1/Q3 for Compound 7 and Compound 8 were 1087/300 and 957/231, respectively. The lower limit of quantification was 100 ng/mL using 20 μL of mouse plasma.
Pharmacokinetic parameters were estimated for Compound 7 after 5 mg/kg intravenous and 20 mg/kg intraperitoneal dosage, respectively. These parameters including area under the curve (AUC), area under the first moment curve (AUMC) and the elimination rate constant, kel, were estimated using noncompartmental methods with add-ins on Excel®. The maximum plasma concentration (Cmax) was obtained from the data. For the intravenous injection, the Cmax was estimated by extrapolating the data to zero time. The terminal half-life, t1/2, was estimated with 0.693/kel. The AUC from the last concentration, Clast, to infinity was estimated by Clast/kel. The systemic clearance (Cl or Cl/F) was calculated with dose/AUC0-∞ and the volume of distribution at steady state (Vdss or Vdss/F) was calculated using the Cl and the mean residence time (MRT; MRT=(Dose/AUC)×(AUMC/AUC)). The bioavailability (F) was estimated by comparing the Cl of intravenous and intraperitoneal injections.

C2C12 myotubes = assay: Insulin signaling in C2C12 myotubes; type: cell-based; conditions: 1 hour pretreatment, 100 nM insulin 30 min
Procedure: as §2, §3

[5] = mouse, 20 mg/Kg intraperitoneal injection
[6] = plasma, mouse, 5 mg/Kg intravenous injection

PTP1B, sequence (P18031 whole entry, species assumed): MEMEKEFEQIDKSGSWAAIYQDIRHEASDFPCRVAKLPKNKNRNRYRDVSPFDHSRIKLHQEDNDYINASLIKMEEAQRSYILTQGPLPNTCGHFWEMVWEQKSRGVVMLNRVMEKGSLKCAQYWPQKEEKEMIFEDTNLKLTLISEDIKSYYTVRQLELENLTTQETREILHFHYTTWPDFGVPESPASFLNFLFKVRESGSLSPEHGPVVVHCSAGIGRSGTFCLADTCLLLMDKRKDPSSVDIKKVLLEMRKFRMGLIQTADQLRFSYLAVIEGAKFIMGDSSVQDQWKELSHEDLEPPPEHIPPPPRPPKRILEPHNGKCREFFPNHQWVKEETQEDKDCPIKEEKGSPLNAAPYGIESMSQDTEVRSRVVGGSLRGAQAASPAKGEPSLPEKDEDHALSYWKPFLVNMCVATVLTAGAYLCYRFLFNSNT
DEP1, sequence (Q12913 36-1337, species assumed): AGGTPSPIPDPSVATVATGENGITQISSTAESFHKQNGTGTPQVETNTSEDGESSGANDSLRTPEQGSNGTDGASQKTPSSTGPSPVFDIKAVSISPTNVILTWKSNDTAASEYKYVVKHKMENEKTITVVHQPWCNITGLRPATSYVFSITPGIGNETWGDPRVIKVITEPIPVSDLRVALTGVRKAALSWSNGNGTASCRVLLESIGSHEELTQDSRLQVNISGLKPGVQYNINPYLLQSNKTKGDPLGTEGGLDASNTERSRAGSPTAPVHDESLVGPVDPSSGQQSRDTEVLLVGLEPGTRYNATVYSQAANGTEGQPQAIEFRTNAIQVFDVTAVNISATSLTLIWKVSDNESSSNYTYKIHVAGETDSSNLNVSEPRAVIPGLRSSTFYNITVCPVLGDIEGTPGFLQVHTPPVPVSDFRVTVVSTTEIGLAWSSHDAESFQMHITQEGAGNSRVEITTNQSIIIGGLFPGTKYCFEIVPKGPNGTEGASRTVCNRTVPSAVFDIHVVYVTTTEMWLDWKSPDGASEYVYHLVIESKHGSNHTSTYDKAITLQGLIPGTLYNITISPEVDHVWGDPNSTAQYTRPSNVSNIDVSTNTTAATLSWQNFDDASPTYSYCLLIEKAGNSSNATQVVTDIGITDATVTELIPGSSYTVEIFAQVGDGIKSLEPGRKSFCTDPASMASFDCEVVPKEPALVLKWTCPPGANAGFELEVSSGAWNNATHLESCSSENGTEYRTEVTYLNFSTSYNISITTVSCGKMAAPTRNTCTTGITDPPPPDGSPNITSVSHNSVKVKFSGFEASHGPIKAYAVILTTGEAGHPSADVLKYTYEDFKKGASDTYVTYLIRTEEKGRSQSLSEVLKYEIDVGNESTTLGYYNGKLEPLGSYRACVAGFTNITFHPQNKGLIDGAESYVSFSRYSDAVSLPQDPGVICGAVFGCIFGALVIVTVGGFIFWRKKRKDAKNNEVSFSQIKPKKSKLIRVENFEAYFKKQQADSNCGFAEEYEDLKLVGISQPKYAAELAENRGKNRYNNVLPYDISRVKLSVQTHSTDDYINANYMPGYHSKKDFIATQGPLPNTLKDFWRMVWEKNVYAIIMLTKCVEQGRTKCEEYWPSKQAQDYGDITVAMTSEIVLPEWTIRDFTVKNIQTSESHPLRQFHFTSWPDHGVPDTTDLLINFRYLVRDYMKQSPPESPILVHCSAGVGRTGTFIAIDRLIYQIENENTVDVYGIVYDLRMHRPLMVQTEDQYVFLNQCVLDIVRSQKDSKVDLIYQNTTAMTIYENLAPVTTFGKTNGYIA
PTPγ, sequence (P23470 20-1445): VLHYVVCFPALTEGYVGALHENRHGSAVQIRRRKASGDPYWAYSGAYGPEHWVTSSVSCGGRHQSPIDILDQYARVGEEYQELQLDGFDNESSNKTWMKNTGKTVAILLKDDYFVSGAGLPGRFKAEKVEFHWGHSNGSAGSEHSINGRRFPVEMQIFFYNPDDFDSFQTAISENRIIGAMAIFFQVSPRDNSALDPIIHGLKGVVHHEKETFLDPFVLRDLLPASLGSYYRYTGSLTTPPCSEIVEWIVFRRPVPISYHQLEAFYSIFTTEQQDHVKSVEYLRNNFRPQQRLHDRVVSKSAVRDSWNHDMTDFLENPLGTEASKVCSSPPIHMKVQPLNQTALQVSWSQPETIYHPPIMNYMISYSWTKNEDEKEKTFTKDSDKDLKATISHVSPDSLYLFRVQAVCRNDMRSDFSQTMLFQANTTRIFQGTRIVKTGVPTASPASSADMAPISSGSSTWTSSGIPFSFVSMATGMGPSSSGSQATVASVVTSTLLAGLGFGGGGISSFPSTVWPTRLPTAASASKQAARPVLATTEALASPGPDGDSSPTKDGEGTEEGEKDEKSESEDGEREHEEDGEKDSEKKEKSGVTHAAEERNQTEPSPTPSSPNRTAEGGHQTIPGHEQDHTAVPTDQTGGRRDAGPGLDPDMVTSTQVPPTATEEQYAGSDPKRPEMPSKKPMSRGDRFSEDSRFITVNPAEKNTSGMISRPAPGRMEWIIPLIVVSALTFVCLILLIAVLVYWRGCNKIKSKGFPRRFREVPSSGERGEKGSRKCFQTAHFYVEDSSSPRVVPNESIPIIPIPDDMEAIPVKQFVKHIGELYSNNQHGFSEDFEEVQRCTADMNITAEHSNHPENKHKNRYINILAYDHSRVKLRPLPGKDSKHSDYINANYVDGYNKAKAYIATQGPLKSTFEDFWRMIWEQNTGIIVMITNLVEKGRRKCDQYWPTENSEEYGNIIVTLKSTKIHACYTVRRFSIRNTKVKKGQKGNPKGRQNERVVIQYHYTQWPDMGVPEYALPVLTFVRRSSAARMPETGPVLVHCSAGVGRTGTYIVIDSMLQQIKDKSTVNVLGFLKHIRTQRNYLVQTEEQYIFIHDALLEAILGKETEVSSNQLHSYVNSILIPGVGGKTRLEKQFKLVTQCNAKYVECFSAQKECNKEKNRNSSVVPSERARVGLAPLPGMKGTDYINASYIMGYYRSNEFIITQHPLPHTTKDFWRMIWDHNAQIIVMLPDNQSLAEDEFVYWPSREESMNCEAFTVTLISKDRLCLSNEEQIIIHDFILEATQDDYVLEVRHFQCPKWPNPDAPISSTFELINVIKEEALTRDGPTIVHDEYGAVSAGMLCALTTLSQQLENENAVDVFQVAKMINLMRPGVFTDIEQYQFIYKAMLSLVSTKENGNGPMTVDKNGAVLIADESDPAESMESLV

## COc1cc(CC(=O)NCC(NC(=O)C(CCCNC(=O)c2cccc(I)c2)NC(=O)C(Cc2ccc(C(F)(F)P(=O)(O)O)cc2)NC(=O)c2ccc(C)c(Br)c2)C(N)=O)ccc1O (stereo not drawn) [Compound 7]
[1]
  inhibition of a panel of mammalian PTPs: no inhibition
[2]
  increase of Akt (Ser473) phosphorylation: 40-60%
  phosphorylation of Tyr1162/1163 in IR, higher than control mice: 2-3 fold
[3]
  insulin signaling (phospho-Akt, phospho-IR): augmented insulin signaling
PTPγ
  IC50: > 10000 nM
DEP1
  IC50: > 10000 nM
PTP1B; pNPP substrate
  pIC50: 6.07
PTP1B; ratio of IC50 values
  selectivity for PTP-MEG2 over PTP1B: more than 10 fold
[4]; ip, 20 mg/Kg intraperitoneal injection
  Cmax: 4.5 µM
[4]; 5 mg/Kg intravenous injection, extrapolated to zero time
  Cmax: 25.7 µM
[4]; [5]
  Cl/F: 0.047 L/h
  t1/2: 1.8 h
[4]; plasma, ip, mouse, 20 mg/Kg intraperitoneal injection
  half-life: 108 min
[4]; plasma, ip, mouse, 20 mg/Kg intraperitoneal injection, read-out: Vdss/F
  Vd/F: 0.08 L
[4]; [6]
  clearance: 0.233 mL/min
  half-life: 48 min
[4]; plasma, mouse, 5 mg/Kg intravenous injection, read-out: Vdss
  Vd: 0.007 L
C2C12 myotubes
  insulin signaling (phospho-Akt, phospho-IR): augmented insulin signaling
